Results taken from patent US20090275099A1 (priority 2004, published 2009).
Where two headings read alike, the source gives them in different places.

Key:
[1] = biological target: T1, mitochondrial F1F0-ATPase (Bos taurus, UniProt P13621+P32876); assay: biochemical; parameters: species or system bovine; conditions: for Ki: synthesis
[2] = system: migration inhibitory factor (MIF); assay: gene expression profiling of Ramos cells (Affymetrix U133A); format: cell-based, human
Procedure: In vitro testing with Ramos cells to determine the changes in gene expression (at the level of mRNA) induced by Bz-423 was performed by culturing cells at a density of 500,000 cells per ml. Solvent control (DMSO, final concentration 0.1% V/V]), Bz-423, or Bz-OMe (10 μM) was added to cells. After 4 h, cells were harvested and RNA prepared using Trizol Reagent (#15596-018, Life Technologies, Rockville, Md.) and the RNeasy Maxi Kit (# 75162, Qiagen, Valencia, Calif.) according to manufacturers protocols. Single stranded cDNA was synthesized by reverse transcription using poly (A) RNA present in the starting total RNA sample. Single stranded cDNA was converted into double stranded cDNA and then in vitro transcription carried out in the presence of biotinylated UTP and CTP to produce biotin-labeled cRNA. cRNA was fragmented in the presence of Mg2+, and hybridized to the human genome U133A Genechip array (Affymetrix). Hybridization results were quantified using a GeneArray scanner and analysis carried out according to the instructions provided by Affymetrix. […]
The data were analyzed to detect genes changes Bz treatment according to the criteria that the log-transformed mean signal changed at least four-fold in treated compared to vehicle control samples and that the coefficient of variance for control values (n=4) was less than 10%. […]

F1F0-ATPase = F1F0-ATPase (Homo sapiens, UniProt P05496+P48047); assay: inhibition of the F1F0-ATPase (potencies stated in the description); format: biochemical
Ramos B cells = assay: cell death of Ramos B cells, propidium iodide exclusion by flow cytometry, 24 h; format: cell-based, human; conditions: Homo sapiens, Ramos, 24 h; read-out: Cell death EC50 (μM), Ramos cells
[3] = biological target: T2, bovine serum albumin (BSA) (Bos taurus, UniProt P02769); assay: binding to bovine serum albumin in tissue culture media; format: in vitro ADME; conditions: tissue culture media containing 10% (v/v) FBS
T2 construct: from tissue; host or cells: fetal bovine serum in tissue culture media
Procedure: Like most 1,4-benzodiazepines, Bz-423 binds strongly to bovine serum albumin (BSA), which reduces the effective concentration of drug free in solution. For example, in tissue culture media containing 10% (v/v) fetal bovine serum (FBS), ca. 99% of the drug is bound to BSA. Therefore, cell culture cytotoxicity assays are conducted in media with 2% FBS to reduce binding to BSA and increase the free [Bz-423]. Under these conditions, the dose response-curve is quite sharp such that there is a limited concentration range at which Bz-423 is only partly effective. Since some benzodiazepines are known to have anti-proliferative properties, the effect of Bz-423 at concentrations <ED50 were carefully analyzed and observed that in addition to inducing apoptosis, Bz-423 prevented cell growth after 3 d in culture. In these low serum conditions, the cytotoxic and anti-proliferative effects overlapped making it difficult to study each effect independently. […] While higher amounts of drug may also block proliferation, it caused apoptosis well before the effects on proliferation could be observed.

fibroblasts = assay: intracellular ROS (DCF, flow cytometry); format: cell-based, human
Description: (§1) Foreskin tissue obtained from neonatal circumcisions was used as a source of epidermal keratinocytes and dermal fibroblasts. The use of foreskin tissue in this project was approved by the University of Michigan Institutional Review Board. Epidermal keratinocytes were isolated from foreskin tissue as described previously (see, e.g., Varani J, et al., (1994) J. Clin. Invest. 94:1747-1753; herein incorporated by reference in its entirety). Primary and early passage cells were maintained in Keratinocyte Growth Medium (KGM) (Cambrex Bioscience.). […]
(§2) 2′,7′-dichlorodihydrofluorescin diacetate (DCFH-DA, Molecular Probes, Eugene, Oreg.) was prepared as a 10 mM stock solution in DMSO prior to each use. […] After the indicated treatments, the fluorescence of the oxidized product 2′,7′-dichlorofluorescin (DCF) was monitored by flow cytometry using a FACSCalibur (BD Bioscience, San Diego, Calif.). For each sample, 10,000 events were recorded and the data analyzed to determine median fluorescence intensity.
(§3) Within 1 hour of treatment, Bz-423 increased ROS production in a dose-dependent manner in lymphoid cells. To determine if the anti-proliferative responses to Bz-423 in keratinocytes and fibroblasts similarly involve ROS generation, intracellular ROS levels in Bz-423 treated cells were measured. […]

keratinocytes = assay: intracellular ROS (DCF, flow cytometry); format: cell-based, human
Description: as §1, §2, §3

[4] = biological target: T1, mitochondrial F1F0-ATPase; assay: biochemical; parameters: species or system bovine; conditions: for EC50: bovine SMPs
Jurkat cells = assay: cell death at 24 h; format: cell-based; conditions: Homo sapiens, Jurkat, 24 h, read-out: Cell death EC50 (μM), Jurkat cells
Procedure: Since an early mitochondrial superoxide (O2^−) mediates apoptosis induced by Bz-423, the O2^− response of cells 1 h following incubation with drug was examined, as well as cell death at 24 h, as previously described (see, e.g., Blatt, N. B., et al., 2002 J Clin Invest 110, 1123-1132; incorporated herein by reference in its entirety).

T2 sequence (P02769 25-607): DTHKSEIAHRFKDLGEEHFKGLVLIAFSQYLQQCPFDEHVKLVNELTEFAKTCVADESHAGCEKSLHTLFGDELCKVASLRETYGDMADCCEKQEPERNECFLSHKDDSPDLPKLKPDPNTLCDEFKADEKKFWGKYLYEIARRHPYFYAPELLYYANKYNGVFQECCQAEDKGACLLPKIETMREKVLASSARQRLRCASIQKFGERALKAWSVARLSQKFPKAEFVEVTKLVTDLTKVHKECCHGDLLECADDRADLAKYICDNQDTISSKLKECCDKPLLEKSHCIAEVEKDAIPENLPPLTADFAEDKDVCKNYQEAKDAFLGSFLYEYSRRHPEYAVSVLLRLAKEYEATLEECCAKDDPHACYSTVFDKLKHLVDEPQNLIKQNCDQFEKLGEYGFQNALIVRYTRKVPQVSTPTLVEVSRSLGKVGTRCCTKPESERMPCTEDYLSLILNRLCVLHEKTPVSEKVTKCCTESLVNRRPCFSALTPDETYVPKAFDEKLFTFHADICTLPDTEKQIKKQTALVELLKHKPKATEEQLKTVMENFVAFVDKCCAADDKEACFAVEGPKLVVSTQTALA

CN1C(=O)C(Cc2ccc3ccccc3c2)N=C(c2ccc(O)cc2)c2cc(Cl)ccc21 (stereo not drawn) [Bz-423]
EC50 ([1]; ATPase activity EC50 (μM), Synthesis, bovine SMPs): 5.5 µM
Ki ([1]; Ki (E), three-dimensional fit, Bz-423): 6.9 ± 0.3 µM
Ki ([1]; Ki (ES), three-dimensional fit, Bz-423): 10 ± 1 µM
Ki ([1]; competitive inhibition constant (Ki(E)), fit of dependence of Vmax/Km on Bz-423 concentration): 7.2 ± 0.3 µM
Ki ([1]; uncompetitive inhibition constant (Ki(ES)), fit of dependence of Vmax on Bz-423 concentration): 11 ± 2 µM
induction of MIF [2]: approximately 10 fold
Ki (F1F0-ATPase): ~9 µM
EC50 (Ramos B cells): 6.3 µM
drug bound to BSA [3]: ca. 99%
lowest dose with an ROS response (fibroblasts): 250 nM
lowest dose with an ROS response (keratinocytes): 250 nM
Ki [4]: 11 ± 0.4 µM
EC50 ([4]; ATPase activity EC50 (μM), Hydrolysis): 8.9 µM
EC50 ([4]; ED 50, inhibition of mitochondrial ATPase activity): ~5 µM
EC50 (Jurkat cells): 6 µM
